Measured values as given in US20100184786A1, “Polar Quinazolines” (Wyeth LLC, priority 2008, published 2010).

Key:
human LXRβ = biological target: T1, human LXRβ (Homo sapiens, UniProt P55055); experiment: Ligand-binding test procedure for human LXRβ (3H T0901317 tracer, flash plates); conditions: competition with 3H T0901317; read-out: hLXRb binding IC50
T1 construct: biotin (biotinylated); made in house; host or cells: E. coli
T1 sequence (P55055 1-460): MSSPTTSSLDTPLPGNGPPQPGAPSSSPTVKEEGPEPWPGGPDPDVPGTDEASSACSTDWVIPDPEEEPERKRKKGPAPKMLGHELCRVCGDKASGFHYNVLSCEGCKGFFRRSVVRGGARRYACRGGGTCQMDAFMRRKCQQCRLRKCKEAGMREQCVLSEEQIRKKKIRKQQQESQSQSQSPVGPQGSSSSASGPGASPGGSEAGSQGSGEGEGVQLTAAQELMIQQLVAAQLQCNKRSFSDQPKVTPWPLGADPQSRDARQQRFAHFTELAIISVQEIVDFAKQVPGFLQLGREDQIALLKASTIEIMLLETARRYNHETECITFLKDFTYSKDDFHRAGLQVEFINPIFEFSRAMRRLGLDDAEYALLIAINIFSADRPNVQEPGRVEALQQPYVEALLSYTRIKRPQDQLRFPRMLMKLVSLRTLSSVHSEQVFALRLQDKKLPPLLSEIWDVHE
Method: I. Ligand-Binding Test Procedure for Human LXRβ.
• Buffer: 100 mM KCl, 100 mM TRIS (pH 7.4 at +4° C.), 8.6% glycerol, 0.1 mM PMSF*, 2 mM MTG*, 0.2% CHAPS (* not used in wash buffer) • Tracer: ^3H T0901317 • Receptor source: E. coli extracted from cells expressing biotinylated hLXRβ. Extract was made in a similar buffer as above, but with 50 mM TRIS.
• Washed streptavidin and coated flash plates with wash buffer. • Diluted receptor extract to give Bmax˜4000 cpm and add to the wells. • Wrapped the plates in aluminum foil and stored them at +4° C. overnight.
(§1) • Made a dilution series in DMSO of the test ligands. • Made a 5 nM solution of the radioactive tracer in buffer. • Mixed 2500 diluted tracer with 50 of the test ligand from each concentration of the dilution series. • Washed the receptor-coated flash plates. • Added 2000 per well of the ligand/radiolabel mixture to the receptor-coated flash plates. • Wrapped the plates in aluminum foil and incubate at +4° C. over night.
• Aspirated wells, and washed the flashed plates. Sealed the plate. • Measured the remaining radioactivity in the plate.

human LXRα = biological target: T2, human LXRα (Homo sapiens, UniProt Q13133); experiment: Ligand-binding test procedure for human LXRα (3H T0901317 tracer, flash plates); conditions: competition with 3H T0901317; read-out: hLXRa binding IC50
T2 construct: biotin (biotinylated); made in house; host or cells: E. coli
T2 sequence (Q13133 1-447): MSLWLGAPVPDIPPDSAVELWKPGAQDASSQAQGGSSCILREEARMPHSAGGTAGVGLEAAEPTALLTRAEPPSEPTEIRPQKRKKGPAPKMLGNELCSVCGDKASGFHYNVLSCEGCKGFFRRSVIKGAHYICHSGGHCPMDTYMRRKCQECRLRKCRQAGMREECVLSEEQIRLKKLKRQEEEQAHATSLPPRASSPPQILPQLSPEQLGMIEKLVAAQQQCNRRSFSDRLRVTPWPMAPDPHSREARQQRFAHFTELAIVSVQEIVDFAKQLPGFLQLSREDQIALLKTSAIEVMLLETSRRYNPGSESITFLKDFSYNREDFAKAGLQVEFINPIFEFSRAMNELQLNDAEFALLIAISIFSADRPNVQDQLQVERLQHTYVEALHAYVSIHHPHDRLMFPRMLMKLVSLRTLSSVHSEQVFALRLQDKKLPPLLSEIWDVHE
Method: II. Ligand-Binding Test Procedure for Human LXRa.
• Buffer: 100 mM KCl, 100 mM TRIS (pH 7.4 at +4° C.), 8.6% glycerol, 0.1 mM PMSF*, 2 mM MTG*, 0.2% CHAPS (* not used in wash buffer) • Tracer: ^3H T0901317 • Receptor source: E. coli extract from cells expressing biotinylated hLXRα. Extract was made in a similar buffer as above, but with 50 mM TRIS.
• Washed streptavidin and coated flash plates with wash buffer. • Diluted receptor extract to give Bmax˜4000 cpm and add to the wells. • Wrapped the plates in aluminum foil and stored them at +4° C. over night.
as §1
• Aspirated wells, and wash the flashed plates. Sealed the plate. • Measured the remaining radioactivity in the plate.

SMILES | IC50 (human LXRβ) [nM] | IC50 (human LXRα) [nM]
CS(=O)(=O)c1cc(Oc2ccc(F)c(-c3ncnc4c(Cl)cccc34)c2)ccc1C(N)=O [Example 42, 4-[3-(8-chloroquinazolin-4-yl)-4-fluorophenoxy]-2-(methylsulfonyl)benzamide] | 4900 | 10900
CS(=O)(=O)c1cc(Oc2ccc(Cl)c(-c3ncnc4c(Cl)cccc34)c2)ccc1C(N)=O [Example 6, 4-[4-chloro-3-(8-chloroquinazolin-4-yl)phenoxy]-2-(methylsulfonyl)benzamide] | 1260 | 3840
O=C(O)CCCS(=O)(=O)c1cccc(Oc2ccc(F)c(-c3ncnc4c(C(F)(F)F)cccc34)c2)c1 [Example 27, 4-[(3-{4-fluoro-3-[8-(trifluoromethyl)quinazolin-4-yl]phenoxy}phenyl)sulfonyl]butanoic acid] | 1200 | 16700
NC(=O)CCCCS(=O)(=O)c1cccc(Oc2ccc(F)c(-c3ncnc4c(C(F)(F)F)cccc34)c2)c1 [Example 33, 5-[(3-{4-fluoro-3-[8-(trifluoromethyl)quinazolin-4-yl]phenoxy}phenyl)sulfonyl]pentanamide] | 130 | 1350
CS(=O)(=O)c1cc(Oc2ccc(Cl)c(-c3ncnc4c(C(F)(F)F)cccc34)c2)ccc1C#N [Example 2, 4-{4-chloro-3-[8-(trifluoromethyl)quinazolin-4-yl]phenoxy}-2-(methylsulfonyl)benzonitrile] | 152 | 1060
CS(=O)(=O)c1cc(Oc2ccc(Cl)c(-c3ncnc4c(Cl)cccc34)c2)ccc1C#N [Example 1, 4-[4-chloro-3-(8-chloroquinazolin-4-yl)phenoxy]-2-(methylsulfonyl)benzonitrile] | 329 | 3130
CS(=O)(=O)c1cc(Oc2ccc(F)c(-c3ncnc4c(C(F)(F)F)cccc34)c2)ccc1C#N [Example 38, 4-{4-fluoro-3-[8-(trifluoromethyl)quinazolin-4-yl]phenoxy}-2-(methylsulfonyl)benzonitrile] | 506 | 4100
NS(=O)(=O)c1cccc(Oc2ccc(F)c(-c3ncnc4c(Cl)cccc34)c2)c1 [Example 20, 3-[3-(8-chloroquinazolin-4-yl)-4-fluorophenoxy]benzenesulfonamide] | 336 | 2880
CS(=O)(=O)c1cc(Oc2ccc(F)c(-c3ncnc4c(C(F)(F)F)cccc34)c2)ccc1C(N)=O [Example 39, 4-{4-fluoro-3-[8-(trifluoromethyl)quinazolin-4-yl]phenoxy}-2-(methylsulfonyl)benzamide] | 1210 | 4370
CS(=O)(=O)NCCCS(=O)(=O)c1cccc(Oc2ccc(F)c(-c3ncnc4c(C(F)(F)F)cccc34)c2)c1 [Example 29, N-{3-[(3-{4-fluoro-3-[8-(trifluoromethyl)quinazolin-4-yl]phenoxy}phenyl)sulfonyl]propyl}-methanesulfonamide] | 157 | 1330
CS(=O)(=O)c1cc(Oc2ccc(F)c(-c3ncnc4c(Cl)cccc34)c2)ccc1C#N [Example 41, 4-[3-(8-chloroquinazolin-4-yl)-4-fluorophenoxy]-2-(methylsulfonyl)benzonitrile] | 1060 | –

More lines, now with the values ahead:

IC50 (human LXRβ) [nM] | IC50 (human LXRα) [nM] | SMILES
150 | 2260 | Cc1nc(-c2cc(Oc3cccc(S(=O)(=O)CCCC#N)c3)ccc2Cl)c2cccc(C(F)(F)F)c2n1 [Example 59, 4-[(3-{4-chloro-3-[2-methyl-8-(trifluoromethyl)quinazolin-4-yl]phenoxy}phenyl)sulfonyl]-butanenitrile]
4210 | – | O=C(O)CCCS(=O)(=O)c1cccc(Oc2ccc(F)c(-c3ncnc4c(Cl)cccc34)c2)c1 [Example 57, 4-({3-[3-(8-chloroquinazolin-4-yl)-4-fluorophenoxy]phenyl}sulfonyl)butanoic acid]
324 | 232000 | NC(=O)CCCCS(=O)(=O)c1cccc(Oc2ccc(F)c(-c3ncnc4c(Cl)cccc34)c2)c1 [Example 53, 5-({3-[3-(8-chloroquinazolin-4-yl)-4-fluorophenoxy]phenyl}sulfonyl)pentanamide]
3590 | – | CNCCCCS(=O)(=O)c1cccc(Oc2ccc(F)c(-c3ncnc4c(Cl)cccc34)c2)c1 [Example 43, 4-({3-[3-(8-chloroquinazolin-4-yl)-4-fluorophenoxy]phenyl}sulfonyl)-N-methylbutan-1-amine]
326 | 4540 | Cc1nc(-c2cc(Oc3cccc(S(=O)(=O)CCCCNS(C)(=O)=O)c3)ccc2Cl)c2cccc(C(F)(F)F)c2n1 [Example 63, N-{4-[(3-{4-chloro-3-[2-methyl-8-(trifluoromethyl)quinazolin-4-yl]phenoxy}phenyl)sulfonyl]-butyl}methanesulfonamide]
343 | 7040 | Cc1nc(-c2cc(Oc3cccc(S(=O)(=O)CCCNS(C)(=O)=O)c3)ccc2Cl)c2cccc(C(F)(F)F)c2n1 [Example 62, N-{3-[(3-{4-chloro-3-[2-methyl-8-(trifluoromethyl)quinazolin-4-yl]phenoxy}phenyl)sulfonyl]-propyl}methanesulfonamide]
274 | 3980 | N#CCCCS(=O)(=O)c1cccc(Oc2ccc(F)c(-c3ncnc4c(Cl)cccc34)c2)c1 [Example 47, 4-({3-[3-(8-chloroquinazolin-4-yl)-4-fluorophenoxy]phenyl}sulfonyl)butanenitrile]
1880 | 11500 | NCCCCS(=O)(=O)c1cccc(Oc2ccc(F)c(-c3ncnc4c(Cl)cccc34)c2)c1 [Example 45, 4-({3-[3-(8-chloroquinazolin-4-yl)-4-fluorophenoxy]phenyl}sulfonyl)butan-1-amine]
1990 | – | CN(CCCS(=O)(=O)c1cccc(Oc2ccc(F)c(-c3ncnc4c(Cl)cccc34)c2)c1)S(C)(=O)=O [Example 49, N-[3-({3-[3-(8-chloroquinazolin-4-yl)-4-fluorophenoxy]phenyl}sulfonyl)propyl]-N-methylmethanesulfonamide]
1020 | – | CN(CCCCS(=O)(=O)c1cccc(Oc2ccc(F)c(-c3ncnc4c(Cl)cccc34)c2)c1)S(C)(=O)=O [Example 48, N-[4-({3-[3-(8-chloroquinazolin-4-yl)-4-fluorophenoxy]phenyl}sulfonyl)butyl]-N-methylmethanesulfonamide]
584 | 6540 | NC(=O)CCCS(=O)(=O)c1cccc(Oc2ccc(F)c(-c3ncnc4c(Cl)cccc34)c2)c1 [Example 54, 4-({3-[3-(8-chloroquinazolin-4-yl)-4-fluorophenoxy]phenyl}sulfonyl)butanamide]
471 | 6350 | CS(=O)(=O)NCCCS(=O)(=O)c1cccc(Oc2ccc(F)c(-c3ncnc4c(Cl)cccc34)c2)c1 [Example 50, N-[3-({3-[3-(8-chloroquinazolin-4-yl)-4-fluorophenoxy]phenyl}sulfonyl)propyl]methane-sulfonamide]
296 | 8180 | NCCCS(=O)(=O)c1cccc(Oc2ccc(F)c(-c3ncnc4c(Cl)cccc34)c2)c1 [Example 46, 3-({3-[3-(8-chloroquinazolin-4-yl)-4-fluorophenoxy]phenyl}sulfonyl)propan-1-amine]
3430 | – | O=C(O)CCCCS(=O)(=O)c1cccc(Oc2ccc(F)c(-c3ncnc4c(Cl)cccc34)c2)c1 [Example 56, 5-({3-[3-(8-chloroquinazolin-4-yl)-4-fluorophenoxy]phenyl}sulfonyl)pentanoic acid]
